Experimental data taken from patent publication US20100215653A1, “METHODS OF TREATING NEOPLASTIC, AUTOIMMUNE AND INFLAMMATORY DISEASES” (Seattle Genetics, Inc., priority 2006, published 2010).

Assays:
HEL 92.1.7 cells = experiment: Complement-dependent cytotoxicity (CDC) activity; format: cell-based, human; details: HEL 92.1.7 cells preincubated 2 hours with drug before HuM195
Experimental: The purpose of this study was to determine whether the cytotoxic effects of an anti-CD33 antibody (HuM195) on AML cells could be enhanced by combination treatment with chemotherapeutic drugs. An MDR^+, CD33-positive AML cell line (HEL 92.1.7) was either untreated or preincubated with the indicated concentrations of thalidomide or 5-azacytidine for two hours prior to exposure to the anti-CD33 Ab. Cytotoxic activity was measured using a complement-dependent cytotoxicity (CDC) activity.

[1] = tested on: AML tumor cells (KG-1 HEL9217, and TF1α); experiment: ADCC, 51Cr release assay with NK effector cells; format: cell-based, human; details: NK cells pre-treated 2 to 3 h with drug before addition to target cells (FIG. 23)
Experimental: Target AML tumor cells (KG-1 HEL9217, and TF1α) were labeled with Na^51CrO4 and mixed with enriched CD16^+ effector (NK) cells, prepared using PBMCs from normal donors. The effector to target cell ratio was 10:1. […] Macrophages were labeled with CD11b−FITC or CD14-FITC antibody. Flow cytometric analyses of dual labeled (PKH67+CD11b+ or PKH67+CD14+) cells was used to determine specific uptake (phagocytosis). […] Media were collected 18 h later and analyzed by ELISA for IL-8 or MCP-1.
Viable NK cells were pre-treated for 2 to 3 h with lenalidomide or thalidomide (as described in FIG. 23) prior to addition to target cells.

[2] = target: CD33 on human cells (AML cell lines HL60, KG-1, HEL9217, TF1-alpha, U937; primary human monocytes and macrophages) (human) (UniProt P20138); experiment: apparent Kd, saturation binding by flow cytometry on HL60 cells
[3] = target: CD33 on human cells (AML cell lines HL60, KG-1, HEL9217, TF1-alpha, U937; primary human monocytes and macrophages) (human) (UniProt P20138); experiment: apparent Kd, saturation binding by flow cytometry on KG-1 cells
[4] = target: CD33 on human cells (AML cell lines HL60, KG-1, HEL9217, TF1-alpha, U937; primary human monocytes and macrophages) (human) (UniProt P20138); experiment: apparent Kd, saturation binding by flow cytometry on HEL9217 cells
[5] = target: CD33 on human cells (AML cell lines HL60, KG-1, HEL9217, TF1-alpha, U937; primary human monocytes and macrophages) (human) (UniProt P20138); experiment: apparent Kd, saturation binding by flow cytometry on TF1-alpha cells
HL-60 cells = experiment: HL-60 disseminated AML model in mice; format: in vivo; details: low doses of cytarabine alone (FIG. 22)
Experimental: Mice were implanted with an AML cell line, HL-60, as follows: 5 million HL-60 cells were injected intravenously. The mice were treated with lintuzumab (10 mg/kg, q4dx4, ip), cytarabine (1 mg/kg, 5 mg/kg or 25 mg/kg, q1dx10, ip; or 50 mg/kg or 100 mg/kg, q2dx5, ip) or lintuzumab with cytarabine (dosed as described previously). Treatment began on day one. Referring to FIG. 22, the control mice or mice treated with placebo (0.9% saline) were removed from the study by day 80, due to tumor progression.
To confirm the data of the in vitro study, mice were implanted with an AML cell line, HL-60, as follows: 5 million HL-60 cells were injected intravenously. […] Treatment began on day one. Referring to FIG. 24, the control mice were removed from the study by about day 60 due to tumor progression. Mice treated with lenalidomide were removed from study by about day 90 for similar reasons.
The MDR-negative HL60 cell line and the MDR-positive HEL9217 and TF1-α cell lines were used. […] Disease symptoms typically developed between about 35 and about 80 days, and included hind limb paralysis, scruffy coat, weight loss, palpable tumors, and/or tumor masses in bone, peritoneal cavity, or soft tissues. Human CD33+ tumor cells were detected in the blood, bone marrow, and lymph nodes of the majority of the mice by flow cytometry (FIG. 25). Solid tumors associated with bone or soft tissues were found in 20 to 60% of the mice.

[6] = tested on: primary human macrophages; experiment: Macrophage migration in response to chemoattractants (CytoSelect Cell Migration Assay); format: cell-based; details: 10% human serum or 20% conditioned media from RPMI 8226 cells; p<0.05 (FIG. 21)
Experimental: The migration of macrophages in response to challenge with plating media containing 10% human serum, 20% conditioned tumor cell media, or 50 ng/ml TGF-β, VEGF, TNF-α, or IFN-γ was evaluated using the CytoSelect Cell Migration Assay (Cell Biolabs, San Diego, Calif.). […] The study was stopped 18 hours later and migration was evaluated after dissociation of the cells from the membrane followed by detection with Cyquant GR dye.
The migration of macrophages in response to challenge with plating media containing 10% human serum or 20% conditioned tumor cell media was evaluated using the CytoSelect Cell Migration Assay (Cell Biolabs, San Diego, Calif.). […] The studies were stopped 18 h later and migration was evaluated after dissociation of the cells from the membrane followed by detection with Cyquant GR dye.

[7] = Effector function (ADCC or CDC activity), data not shown; format: cell-based
CD33 [8] = target: T1, CD33 (Homo sapiens, UniProt P20138); experiment: CD33 tyrosine phosphorylation (CD33 immunoprecipitation, anti-phosphotyrosine Western blot); format: cell-based; set-up: endogenous in cells; host or cells: HL-60, U937; primary human CD14+ monocytes and PBMC-derived macrophages; details: HL-60 AML cells (FIG. 16)
Experimental: CD33-positive cell lines were treated with anti-CD33 antibodies (lintuzumab and certain commercially available antibodies). Cell extracts were prepared and CD33 was immunoprecipitated using an anti-CD33 antibody (MY9 clone; Beckman Coulter, Calif.). Western blotting was performed with an anti-phosphotyrosine antibody (4G10; Upstate Biotechnologies, Inc., Lake Placid, N.Y.).
(§1) Deglycosylation was confirmed by CE-SDS. […] Cell lysates were prepared and CD33 immunoprecipitated using an anti-CD33 rabbit polyclonal antibody (Santa Cruz Biotechnology, Santa Cruz, Calif.) prior to SDS PAGE gel electrophoresis. Western blot analyses of these samples were performed using the 4G10 phosphotyrosine antibody (Upstate Biotechnology, Temucula, Calif.), anti-CD33 antibody (NovoCastra, Norwell, Mass.), and anti-SHP-1 antibody (Calbiochem, San Diego, Calif.). Control lysate for SHP-1 was prepared from a B cell lymphoma cell line.

CD33 [9] = target: T1, CD33; experiment: Recruitment of SHP-1 / SHP-2 / Syk to CD33 (CD33 immunoprecipitation, Western blot); format: cell-based; set-up: endogenous in cells; host or cells: HL-60, U937; primary human CD14+ monocytes and PBMC-derived macrophages; details: HL-60 and monocytes; 30 minutes (FIG. 16)
Experimental: To determine whether the humanized M195 antibody also recruits SHP phosphatases, HL-60 cells were treated with soluble or cross-linked anti-CD33 antibodies. Cell extracts were prepared and CD33 was immunoprecipitated with an anti-CD33 antibody (MY9 clone). Western blotting was performed with an anti-SHP-1 antibody (sc-287; Santa Cruz Biotechnology, Inc., Santa Cruz, Calif.).
as §1, with “To prepare deglycosylated SGN-33, the antibody was treated with PN-glycosidase F (New England BioLabs, Ipswich, Mass.). Deglycosylation” for “Deglycosylation”

Sequence of CD33 on human cells (AML cell lines HL60, KG-1, HEL9217, TF1-alpha, U937; primary human monocytes and macrophages) (human) (P20138 18-364): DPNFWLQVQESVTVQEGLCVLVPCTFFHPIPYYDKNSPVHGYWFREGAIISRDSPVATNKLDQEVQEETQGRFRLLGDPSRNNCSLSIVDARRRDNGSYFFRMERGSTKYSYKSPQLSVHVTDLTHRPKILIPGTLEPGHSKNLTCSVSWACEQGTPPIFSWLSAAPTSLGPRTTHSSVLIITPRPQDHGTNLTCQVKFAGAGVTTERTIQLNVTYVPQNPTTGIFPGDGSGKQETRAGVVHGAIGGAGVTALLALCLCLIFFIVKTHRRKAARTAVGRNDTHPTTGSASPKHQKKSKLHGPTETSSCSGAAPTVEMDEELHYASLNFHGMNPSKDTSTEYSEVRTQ
T1 sequence (P20138 18-364): as above

Compound: O=C1CCC(N2C(=O)c3ccccc3C2=O)C(=O)N1 (stereo not shown) [thalidomide, reference compound]
- sensitivity to HuM195-mediated CDC activity after preincubation with drug (HEL 92.1.7 cells): enhanced the sensitivity
- effect on SGN-33 mediated ADCC [1]: enhanced SGN-33 mediated ADCC

Compound: Nc1cccc2c1CN(C1CCC(=O)NC1=O)C2=O (stereo not shown) [lenalidomide, reference compound]
- effect on SGN-33 mediated ADCC [1]: enhanced SGN-33 mediated ADCC

Compound: SGN-33, humanized M195 anti-CD33 antibody
- Kd [2]: 0.123 nM
- Kd [3]: 0.07 nM
- Kd [4]: 0.144 nM
- Kd [5]: 0.099 nM

Compound: Nc1ccn([C@@H]2O[C@H](CO)[C@@H](O)[C@@H]2O)c(=O)n1 [cytarabine, reference compound]
- percent survival rates compared to untreated controls (HL-60 cells): increasing percent survival rates

Compound: Nc1ncn([C@@H]2O[C@H](CO)[C@@H](O)[C@H]2O)c(=O)n1 [5-azacytidine]
- sensitivity to HuM195-mediated CDC activity after preincubation with drug (HEL 92.1.7 cells): enhanced the sensitivity

Compound: deglycosylated SGN-33: SGN-33 treated with PN-glycosidase F; does not interact with Fc receptors
- macrophage migration [6]: significantly reduced the migration
- effector function, including ADCC or CDC activity [7]: did not mediate effector function
- phosphorylation of CD33 (CD33 [8]): induced phosphorylation of CD33
- recruitment of SHP-1 to the CD33 complex (CD33 [9]): resulted in recruitment of SHP-1 to the CD33 complex
